Drawing on ChEMBL document CHEMBL6114975, “Discovery of 2,4-quinazolinedione derivatives as LC3B recruiters in the facilitation of protein complex degradations” (Eur J Med Chem, 2025), this text covers inhibition and IC50 for seven compounds.

The target of assay [1] is Cyclin-dependent kinase 9 (Homo sapiens) (UniProt P50750). To be noted: dose 10.0 nM.
Description: Inhibition of CDK9 (unknown origin) at 10 nM relative to control
For assay [2] the target is unchanged. To be noted: dose 100.0 nM.
Description: Inhibition of CDK9 (unknown origin) at 100 nM relative to control
The test system of another assay is WSUDLCL2. As to the kind of experiment: Antiproliferative activity against human WSUDLCL2 cells.

The term inhibition denotes the change of the read-out against control, counted positive when it falls. By IC50 is commonly meant the concentration that gives 50% inhibition. Higher therefore signals weaker potency.

SMILES strings stand for the structures.

Sequence of Cyclin-dependent kinase 9 (Homo sapiens) (P50750 whole entry): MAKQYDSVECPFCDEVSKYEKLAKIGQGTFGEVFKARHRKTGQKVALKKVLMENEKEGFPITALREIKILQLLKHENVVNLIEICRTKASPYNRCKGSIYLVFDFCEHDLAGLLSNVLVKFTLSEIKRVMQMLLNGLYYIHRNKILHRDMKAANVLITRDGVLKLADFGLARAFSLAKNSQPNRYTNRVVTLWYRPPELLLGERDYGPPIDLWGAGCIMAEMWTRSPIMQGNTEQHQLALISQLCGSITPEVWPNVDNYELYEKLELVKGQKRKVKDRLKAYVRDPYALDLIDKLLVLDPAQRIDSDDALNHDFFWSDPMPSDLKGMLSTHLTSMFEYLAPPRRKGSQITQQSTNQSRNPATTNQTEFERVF

Regarding `CC(C)(C)c1cnc(CSc2cnc(NC(=O)C3CCNCC3)s2)o1` [BMS-387032], the inhibition in assay [1] is 22%; in assay [2], 83%. In the assay with WSUDLCL2, this compound returned an IC50 of 0.201 µM.
The like results for `CC(C)(C)c1cnc(CSc2cnc(NC(=O)C3CCN(CCCn4c(=O)n(Cc5ccncc5)c(=O)c5cccnc54)CC3)s2)o1` were, in that order, 30%, 88% and 0.013 µM.
Take `CCn1c(=O)c2cccnc2n(CCCN2CCC(C(=O)Nc3ncc(SCc4ncc(C(C)(C)C)o4)s3)CC2)c1=O`: the inhibition stood at 27% in assay [1] and 83% in assay [2]. This compound also yielded an IC50 in the assay on WSUDLCL2 of 0.039 µM.
`CC(C)(C)c1cnc(CSc2cnc(NC(=O)C3CCN(CCCn4c(=O)n(Cc5ccccc5)c(=O)c5cccnc54)CC3)s2)o1`: the inhibition in assay [1] was 19%; in assay [2] it was 84%. For the same compound, the IC50 in the assay on WSUDLCL2 stood at 0.326 µM.
For `CC(C)(C)c1cnc(CSc2cnc(NC(=O)C3CCN(CCCn4c(=O)n(Cc5ccncc5)c(=O)c5ccc(Cl)cc54)CC3)s2)o1`, the inhibition stood at 13% in assay [1] and 85% in assay [2]. This compound also showed a half-maximal inhibitory concentration (IC50) in the assay on WSUDLCL2 of 0.082 µM.
For the compound `CCn1c(=O)c2ccc(Cl)cc2n(CCCN2CCC(C(=O)Nc3ncc(SCc4ncc(C(C)(C)C)o4)s3)CC2)c1=O`, the inhibition was -2% in assay [1] and 82% in assay [2]. In the assay on WSUDLCL2, it took 0.332 µM to reach half-maximal inhibition (IC50).
Regarding `CC(C)(C)c1cnc(CSc2cnc(NC(=O)C3CCN(CC(=O)NCCOCCOCCOCCNc4cccc5c4C(=O)N(C4CCC(=O)NC4=O)C5=O)CC3)s2)o1` (stereo not given), the inhibition in assay [2] stood at 13%. Inhibition with WSUDLCL2 was half-maximal at 0.31 µM (IC50).
